Measurements as given in US20250170252A1, “QUINONE PROTECTED FORMS AND CONJUGATES” (CAMBRIDGE ENTERPRISE LIMITED, priority 2022, published 2025).

How the values were obtained:
[1] = test system: MOLM-13; assay: Toxicity with/without β-glucuronidase, MOLM-13; assay type: cell-based
Procedure: (§1) Assays assessing cytotoxicity of β-lapachone and derivatives were performed by CellTiter-Blue assay (Promega) according to the manufacturer's instructions. Briefly, adherent cancer-cell lines were plated at 20,000 cells/well in 96 well plates or suspension cell lines were plated at a concentration of 2×10^5 cells/mL in 24 well plates. Compound stocks in media were made by dilution of DMSO stocks containing the compound of interest to obtain a final in-plate DMSO concentration of only 0.1%. Incubation was performed for 48 h. Following incubation, media was replaced with media containing CellTiter-Blue (Promega) in 1:10 dilution and the plates were incubated for 1.5-4 h. The fluorescence of the plates was recorded (excitation 555 nm, emission 585 nm, MiniMax i3x Reader, Molecular Devices).
(§2) Cell viability was calculated by division of the fluorescence intensity of treated wells by that of the calculated average fluorescence intensity of replicate negative control wells containing cells with 0.1% DMSO only. Values and reported error bars represent the mean and standard error of the mean of three triplicate repeats for each concentration tested. IC50 values were calculated using GraphPad Prism 8 software.
(§3) The potential of compound 37a, glucuronide-PHB-BL, as a prodrug was investigated. As discussed above, at physiological pH the compound has a relatively slow-release rate. Toxicity of Gluc-PHB-BL 37a was tested against a range of cell lines with and without added β-glucuronidase. Addition of the enzyme mimics conditions of the solid tumour environment.

[2] = test system: SkBr-3; assay: Toxicity with/without β-glucuronidase, SkBr-3; assay type: cell-based
Procedure: as §1, §2, §3

[3] = target: T1, β-glucuronidase (Escherichia coli, UniProt P05804); assay: Incubation with β-glucuronidase (sugar deprotection); assay type: biochemical, E. coli K-12; conditions: pH 7.4, 37° C.
T1 construct: purchased Roche 03707580001
Procedure: Glucuronide prodrug (37a, b, c, d) was dissolved in DMSO to a concentration of 10 mM. A 100 mM stock solution of warfarin in DMSO was also prepared. To obtain deprotected para-hydroxybenzyl ketol species, the glucuronide stock solution was dissolved in PBS with 16.7% DMF to a concentration of 1.7 mM. 15 μL of a stock solution of R-glucuronidase from E. coli K-12 (Roche #03707580001, 140 U/mL) was added to 900 μL of this stock and incubated for 20 min at 37° C. 15 μL of a 100 mM stock of warfarin internal standard in DMSO was added. Reactions were then set up immediately. For a reaction, 30 μL of the amino-benzyl ketol/standard stock was added to 195 μL of citrate-phosphate buffer at the specified pH. Test samples were incubated at 37° C. with shaking. At the recorded time points, 20 μL aliquots of the reactions were analysed by HPLC (254 nm, Agilent 1260 Infinity). HPLC conditions: column Agilent InfinityLab Poroshell 120 SB—C18 2.7 μm, 50×4.6 mm; solvent system A=H2O+0.1% TFA, B=acetonitrile+0.1% TFA; flow=1 mL/min. Gradient: t=0-1 min 0% B, t=1-2 min 0-30% B, t=2-17 min 30-40% B, t=17-17.1 min 40-100% B, t=17.1-18 min 100% B, t=18-23 min 0% B. Relative peak area represents raw peak area (mAU*s) normalized to raw peak area of the warfarin internal standard. Values recorded are averages of three independent reactions and error bars display standard error of the mean. […]

[4] = test system: HEK-293T; assay: Toxicity with/without β-glucuronidase, HEK-293T; assay type: cell-based
Procedure: as §1, §2, §3

[5] = Stability of glucuronide prodrug to incubation at pH 7.4 at 37° C.; assay type: physicochemical; conditions: pH 7.4, 37° C., 6 days; no β-lapachone observed
Procedure: An experiment testing the stability of compound 37a to incubation at pH 7.4 at 37° C. was also performed.

[6] = Glucuronide kinetics assay (release of β-lapachone after β-glucuronide deprotection); assay type: physicochemical; conditions: pH 7, 37° C., after β-glucuronide deprotection; first experiments
Procedure: Glucuronide prodrug (37a, b, c, d) was dissolved in DMSO to a concentration of 10 mM. A 100 mM stock solution of warfarin in DMSO was also prepared. To obtain deprotected para-hydroxybenzyl ketol species, the glucuronide stock solution was dissolved in PBS with 16.7% DMF to a concentration of 1.7 mM. 15 μL of a stock solution of R-glucuronidase from E. coli K-12 (Roche #03707580001, 140 U/mL) was added to 900 μL of this stock and incubated for 20 min at 37° C. 15 μL of a 100 mM stock of warfarin internal standard in DMSO was added. Reactions were then set up immediately. For a reaction, 30 μL of the amino-benzyl ketol/standard stock was added to 195 μL of citrate-phosphate buffer at the specified pH. Test samples were incubated at 37° C. with shaking. At the recorded time points, 20 μL aliquots of the reactions were analysed by HPLC (254 nm, Agilent 1260 Infinity). HPLC conditions: column Agilent InfinityLab Poroshell 120 SB—C18 2.7 μm, 50×4.6 mm; solvent system A=H2O+0.1% TFA, B=acetonitrile+0.1% TFA; flow=1 mL/min. Gradient: t=0-1 min 0% B, t=1-2 min 0-30% B, t=2-17 min 30-40% B, t=17-17.1 min 40-100% B, t=17.1-18 min 100% B, t=18-23 min 0% B. Relative peak area represents raw peak area (mAU*s) normalized to raw peak area of the warfarin internal standard. Values recorded are averages of three independent reactions and error bars display standard error of the mean. Values were fitted to first-order kinetics using GraphPad Prism 9 software. A positive control experiment was performed under identical conditions with known substrate 4-nitrophenyl-β-D-glucuronide (Sigma Aldrich) to confirm enzyme activity.

[7] = test system: Panc-1 pancreatic cancer cell line; assay: CellTiter Glo viability assay, Panc-1; assay type: cell-based
Procedure: (§4) For CellTiter Glo viability assays, 10,000 cells per well were plated on Day 1 and were allowed to adhere to the plate surface for 24 hours. Optimized concentration ranges of prodrugs were determined and made via serial dilution. […] Cells were incubated with compound for 48 hours and viability was assessed on Day 4 using the CellTiter Glo Viability assay which measures metabolically active cells by quantifying the amount of ATP present.
(§5) Panc-1 cells were obtained from Tony Kouzarides' lab in the Gurdon Institute at the University of Cambridge and put into culture at passage 10 containing DMEM media (Gibco) supplemented with 1% Pen-Strep antibiotic (Gibco), 1% L-glutamine, and 10% fetal bovine serum (FBS, sterile-filtered). Aspc-1 cells were bought commercially from the American Type Culture Collection (ATCC) and put into culture containing RPMI 1640 media (Gibco) supplemented with 1% Pen-Strep antibiotic (Gibco), 1% L-glutamine, and 20% fetal bovine serum (FBS, sterile-filtered). All cell lines were started at passage 10 and passaged every 3 days by centrifuging at 1000 rpm for 4 minutes.

[8] = test system: HeLa; assay: Toxicity with/without β-glucuronidase, HeLa; assay type: cell-based
Procedure: as §1, §2, §3

[9] = test system: Aspc-1 pancreatic cancer cell line; assay: CellTiter Glo viability assay, Aspc-1; assay type: cell-based
Procedure: as §4, §5

[10] = test system: HL-60; assay: Toxicity with/without β-glucuronidase, HL-60; assay type: cell-based
Procedure: as §1, §2, §3

[11] = test system: range of cell lines; assay: Toxicity of Gluc-PHB-BL against a range of cell lines with and without added β-glucuronidase; assay type: cell-based
Procedure: as §1, §2, §3

[12] = Homo sapiens, read-out: IC50 Gluc-PHB-BL 37a

T1 sequence (P05804 whole entry): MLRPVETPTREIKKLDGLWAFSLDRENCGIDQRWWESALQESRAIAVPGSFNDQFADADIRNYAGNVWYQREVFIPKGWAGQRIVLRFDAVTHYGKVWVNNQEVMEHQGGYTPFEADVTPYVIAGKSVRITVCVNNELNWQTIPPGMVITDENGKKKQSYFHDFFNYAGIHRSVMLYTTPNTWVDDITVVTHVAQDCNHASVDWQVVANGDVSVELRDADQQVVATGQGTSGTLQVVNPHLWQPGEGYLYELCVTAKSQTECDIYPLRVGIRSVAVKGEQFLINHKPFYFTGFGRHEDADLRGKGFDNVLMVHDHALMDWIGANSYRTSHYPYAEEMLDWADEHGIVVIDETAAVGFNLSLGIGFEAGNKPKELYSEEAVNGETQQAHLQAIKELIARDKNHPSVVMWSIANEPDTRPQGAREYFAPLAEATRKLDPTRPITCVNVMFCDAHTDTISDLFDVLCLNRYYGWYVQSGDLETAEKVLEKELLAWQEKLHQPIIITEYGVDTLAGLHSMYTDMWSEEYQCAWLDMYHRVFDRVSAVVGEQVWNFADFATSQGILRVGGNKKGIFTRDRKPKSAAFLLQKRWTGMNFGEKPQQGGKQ

CC1(C)CCC2=C(O1)c1ccccc1C(O)(Cc1ccc(O[C@@H]3O[C@H](C(=O)O)[C@@H](O)[C@H](O)[C@H]3O)cc1)C2=O (stereo partly drawn) [Compound 37a, (2S,3S,4S,5R,6S)-3,4,5-trihydroxy-6-(4-((6-hydroxy-2,2-dimethyl-5-oxo-3,4,5,6-tetrahydro-2H-benzo[h]chromen-6-yl)methyl)phenoxy)tetrahydro-2H-pyran-2-carboxylic acid]
IC50 ([1]; Homo sapiens, MOLM-13, read-out: IC50 Gluc-PHB-BL 37a): 78.6 µM
IC50 (37a)/ IC50 (1) ([1]; MOLM-13): 6.50
IC50 ([2]; Homo sapiens, SK-BR-3, read-out: IC50 Gluc-PHB-BL 37a): 24 µM
IC50 (37a)/ IC50 (1) ([2]; SkBr-3): 8.73
sugar deprotection reaction [3]: rapid
IC50 (37a)/ IC50 (1) [4]: 7.18
IC50 [4, 12]: 20.9 µM
toxicity without added β-glucuronidase ([4]; up to 100 μM): low toxicity
stability to incubation [5]: completely stable
release rate of β-lapachone, kobs [6]: 1.09e-06 s⁻¹
IC50 ([7]; Homo sapiens, PANC-1, 48 h): 10.5 µM
toxicity without the β-glucuronidase enzyme ([7]; Panc-1, up to 100 μM): no toxicity
IC50 (37a)/ IC50 (1) [8]: 9.74
IC50 [8, 12]: 41.5 µM
toxicity without the β-glucuronidase enzyme ([9]; Aspc-1, up to 100 μM): no toxicity
IC50 ([9]; Homo sapiens, ASPC1, 48 h): 17.4 µM
IC50 (37a)/ IC50 (1) ([10]; HL-60): 3.51
IC50 ([10]; Homo sapiens, HL-60, read-out: IC50 Gluc-PHB-BL 37a): 15.2 µM
toxicity without added β-glucuronidase ([11]; concentrations up to 100 μM, apart from HEK-293T): not seen
times less toxic than β-lapachone 1 (comparison of estimated IC50) ([11]; treated with β-glucuronidase, 48 h): 3.5-9.7 times
